Patent publication US12459930B2, “Compounds for the inhibition of unregulated cell growth” (GODAVARI BIOREFINERIES LIMITED, priority 2018, dated 2025)
Values joined by “and” are separate entries in the source; they are usually repeats but may differ in a detail not shown here. Identical values can stand only once. Counter-ions that a name gives are not always drawn. Like-named read-outs stand apart in the source and are kept apart here.

Assays:
[1] = test system: PC3 spheres (cancer stem cells); assay: In vitro sphere-forming assay (cancer stem cells), PC3 in Prostosphere media; details: for 3D sphere count of PC3 in Prostosphere media: 2000 cells/well, n = 6 ± S.D; for viability at 0.025 µM: read-out: % Viability of spheres (PC3), 0.025 uM; for viability at 0.25 µM: read-out: % Viability of spheres (PC3), 0.25 uM; for viability at 2.5 µM: read-out: % Viability of spheres (PC3), 2.5 uM; for viability at 25 µM: read-out: % Viability of spheres (PC3), 25 uM; for viability at 0.0025 µM: read-out: % Viability of spheres (PC3), 0.0025 uM
Description: In Vitro Sphere-forming Assay: Sphere assay measures the ability of cancer stem cells (CSCs) to form spheres in specially designed serum-free medium.
Materials and Reagents:50×B27 Supplement (Life Technologies, Invitrogen, Catlog No.: 17502-044), Fibroblast Growth Factor (FGF) (Sigma-Aldrich, Catlog No.: F029125), Epidermal Growth Factor (EGF) (Sigma-Aldrich, Catlog No.: E9644), Insulin (Sigma, Catlog No.: 19278), Dulbecco's Modified Eagle Medium/F12 (HiMedia Catlog No.: AL139-6), Dulbecco's Phosphate Buffered Saline (HiMedia Catlog No.: TL1006), Trypan Blue (TC193), Prostate Epithelial Media (LONZA, Catlog No.: CC-3166) MEGM (LONZA, Catlog No.: CC-3051), Heparin (Sigma, Catlog No.: H3393), Penstrep (HiMedia, Catlog No.: A002)
Prostosphere Media Preparation (For 100 mL): 1 g methyl cellulose autoclaved with magnetic stirrer, 100 mL plain media (Prostate Epithelial Basal Medium) was added and dissolved, under magnetic stirring. After complete dissolution, Insulin—40 μL, B27—2 mL, EGF—80 μL, Penstrep—1 ml was added.
Procedure—The cells were trypsinised and made into single-cell suspension by passing through cell strainers (100 μl and 40 μl, respectively), The cells were diluted at a concentration of 2000 cells/100 μL and suspended in either Mammosphere (for breast cell lines) or Prostosphere (for prostate cell lines). 100 μL of this suspension was added into each well of 96-well suspension plates and incubated at 37 C, 50 CO2 for 24 hrs. Appropriate concentrations of the drugs (2 L) were added into respective wells with 100 μL of stem cell culture medium. Plates were incubated at 37° C., 50% CO2 for 72 hrs. After incubation, 2.5 μL of the respective drug concentration and 50 μL of stem cell culture medium were added into each well and the plates were further incubated at 37° C., 500 CO2 for 72 hrs. 3 μL of the respective drug concentration was added with 50 μL of stem cell culture medium again after incubation and plates were reincubated for 72 hrs at 37° C., 500 CO2. Number of primary spheres formed for each concentration were counted. The spheres were converted to 0 viability of spheres compared to untreated (Growth Control with DMSO, GCD).

[2] = test system: PC3 prostate cancer cell line; assay: In vitro antiproliferative assay (MTT assay), PC3; assay type: cell-based; details: 48 hrs drug incubation, read-out: IC50 in micromolar, PC3 (MTT assay)
Method: (§1) MTT assay is a simple and sensitive assay where, metabolic reducing activity of the cells is measured. The increase of this activity in time is taken as a parameter of cell growth. If treatment with a drug impairs this increase, the action is a consequence of growth inhibition, cell killing or both. […] All cell lines were cultured in a 37° C. incubator with a 5% CO2 environment. Compounds were dissolved in DMSO with a concentration of 0.1M (stock solution). Cells were seeded into 96-well plates at suitable plating efficiency.
(§2) Following plating efficiencies were standardized for MTT assay:
(§3) In the MTT procedure, the cells were plated in 96 well plates as per predetermined plating efficiency (Table1). The plates were then incubated for 24 hrs in 5% CO2 atmosphere at 37° C. Appropriate concentrations of the drugs were then added to the plate and further incubation was carried out for 48 hrs (in 5% CO2 atmosphere at 37° C.). The assay plate was then centrifuged twice at 3000 rpm for 3 mins and supernatant was then discarded. 100 ul of MTT solution (0.5 mg/ml) was then added to each well of the plate and it was further incubated for 4 hrs (in 5% CO2 atmosphere at 37° C.) Following 4 hr incubation, the plate was then centrifuged twice, and supernatant was aspirated off very carefully. 200 ul of DMSO was then added to each well to solubilize. MTT crystals and mixed well by shaking the plate. XY graph of log percent viability was then plotted against log drug concentration.

[3] = test system: DU145 prostate cancer cell line; assay: In vitro antiproliferative assay (MTT assay), DU145; assay type: cell-based; details: 48 hrs drug incubation, read-out: IC50 in micromolar, DU145 (MTT assay)
Method: as §1, §2, §3

[4] = test system: MDAMB231 spheres (cancer stem cells); assay: In vitro sphere-forming assay (cancer stem cells), MDAMB231 in Mammosphere media; details: for 3D sphere count of MDAMB231 in Mammosphere media: 2000 cells/well, n = 6 ± S.D; for viability at 0.0025 µM / viability at 0.025 µM / viability at 0.25 µM / viability at 2.5 µM / viability at 25 µM: Homo sapiens, MDA-MB-231, read-out: % Viability of spheres (MDAMB231)
[5] = test system: MDAMB231 breast cancer cell line; assay: Soft agar colony-formation assay, MDAMB231; assay type: cell-based; details: 1 week, Alamar Blue, read-out: IC50 in micromolar, MDAMB231 (Soft Agar Assay)
Method: (§4) The Soft Agar Colony-formation Assay is an anchorage-independent growth assay in soft agar, which is one of the most stringent assays for detecting malignant transformation of cells. For this assay, malignant cells are cultured with appropriate controls in soft agar medium for 1-2 weeks. Following this incubation period, formed colonies can either be analyzed morphologically using cell stain and quantifying the number of colonies formed.
(§5) Briefly, for Soft Agar Assay a mixture of 50 ul of 2× medium (taken appropriately as per cell line) and 50 ul of 1.2% Bacto Agar were plated on to each well of 96 well micro titer assay plate. 10 ul of cells (of specific plating efficiency pre standardized for respective cell line) were mixed with 20 ul of 2× medium and 30 ul of 0.8% of Bacto Agar and 1.6 ul of drug (of appropriate concentration) in a vial and transferred to the solidified pre layers of the assay plates. The cells were then allowed to grow and form colonies at 37° C. and 5% C02 for 1 week. An intermittent feeding with 50 ul of appropriate 2× medium was performed after 3 days of experimental set up. 16 ul of Alamar Blue (1.5 mg/ml) was then added to all the wells to quantify the developed colonies. The plates were incubated for 24 hrs at 37° C. Absorbance was then measured at 630 nm. XY graph of log Percent viability was then plotted against log drug concentration.
(§6) Following plating efficiencies were standardized for Soft Agar Assay: […]

[6] = test system: PC3 prostate cancer cell line; assay: Soft agar colony-formation assay, PC3; assay type: cell-based; details: 1 week, Alamar Blue, read-out: IC50 in micromolar, PC3 (Soft Agar Assay)
Method: as §4, §5, §6

[7] = test system: MDAMB231 breast cancer cell line; assay: In vitro antiproliferative assay (MTT assay), MDAMB231; assay type: cell-based; details: 48 hrs drug incubation, read-out: IC50 in micromolar, MDAMB231 (MTT assay)
Method: as §1, §2, §3

[8] = Homo sapiens, MDA-MB-231, 168 h

| SMILES | IC50 ([3]; Homo sapiens, DU-145, 48 h) [µM] | IC50 ([6]; 168 h) [µM] | IC50 ([7]; Homo sapiens, MDA-MB-231, 48 h) [µM] | 3D sphere count of PC3 in Prostosphere media ([1]; 0.025 uM) | 3D sphere count of PC3 in Prostosphere media ([1]; 0.25 uM) | 3D sphere count of PC3 in Prostosphere media ([1]; 2.5 uM) | 3D sphere count of PC3 in Prostosphere media ([1]; 25 uM) | viability at 0.025 µM ([1]; GCD = 100% viability) [%] | viability at 0.25 µM ([1]; GCD = 100% viability) [%] | viability at 2.5 µM ([1]; GCD = 100% viability) [%] | viability at 25 µM ([1]; GCD = 100% viability) [%] | IC50 ([2]; 48 h) [µM] | 3D sphere count of MDAMB231 in Mammosphere media ([4]; 0.0025 uM) | 3D sphere count of MDAMB231 in Mammosphere media ([4]; 0.025 uM) | 3D sphere count of MDAMB231 in Mammosphere media ([4]; 0.25 uM) | 3D sphere count of MDAMB231 in Mammosphere media ([4]; 2.5 uM) | 3D sphere count of MDAMB231 in Mammosphere media ([4]; 25 uM) | viability at 0.0025 µM [4] [%] | viability at 0.025 µM [4] [%] | viability at 0.25 µM [4] [%] | further results |
| --- | --- | --- | --- | --- | --- | --- | --- | --- | --- | --- | --- | --- | --- | --- | --- | --- | --- | --- | --- | --- | --- |
| N.N.[Cl][Pt][Cl] [Cisplatin, reference compound] | – | – | – | – | – | – | – | – | – | – | – | – | – | – | – | – | – | – | – | – | 3D sphere count of PC3 in Prostosphere media ([1]; 250 uM): 29(±2) and 29(±5) and 25(±2) and 27(±2); IC50 [2]: 24 µM; IC50 [3]: 29.8 µM; 3D sphere count of MDAMB231 in Mammosphere media ([4]; 250 uM): 24(±3) and 25(±2); IC50 [5]: 26.2 µM; IC50 [6]: 33.4 µM; IC50 [7]: 29.4 µM |
| CCOC(=O)N1CCN(CCCCCCOc2c3c(c(-c4ccc5c(c4)OCO5)c4cc(OC)c(OC)cc24)C(=O)OC3)CC1 [Formula IX, ethyl 4-(6-(9-(benzo[d][1,3]dioxol-5-yl)-1,3-dihydro-6,7-dimethoxy-1-oxonaphtho[2,3-c]furan-4-yloxy)hexyl)piperazine-1-carboxylate Hydrochloride] | 10.7 | 3.29 | 10.9 | – | – | – | – | – | – | – | – | – | – | – | – | – | – | – | – | – | IC50 ([5]; hydrochloride): 0.327 µM |
| COc1cc2c(OCCCCN3CCOCC3)c3c(c(-c4ccc5c(c4)OCO5)c2cc1OC)C(=O)OC3 [Formula VI, 4-(4-morpholinobutoxy)-9-(benzo[d][1,3]dioxol-5-yl)-6,7-dimethoxynaphtho[2,3-c]furan-1(3H)-one] | – | – | – | 49(±2) | 41(±2) | 37(±2) | 27(±2) | 57 | 48 | 43 | 31 | – | – | – | – | – | – | – | – | – | 3D sphere count of PC3 in Prostosphere media ([1]; 250 uM): 0(±0); viability at 250 µM ([1]; read-out: % Viability of spheres (PC3), 250 uM, GCD = 100% viability): 0%; IC50 [3]: 4.05 µM; IC50 [5]: 2.69 µM; IC50 [6]: 2.65 µM; IC50 [7]: 10.9 µM |
| O=C(CCCOc1ccc(-c2ccc3c(c2)OCO3)c2ccccc12)N1CCOCC1 [Formula XV, 4-(1-(benzo[d][1,3]dioxol-5-yl)naphthalen-4-yloxy)-1-morpholinobutan-1-one] | 2.51 | 3.06 | 4.95 | – | – | – | – | – | – | – | – | 7.82 | 53(±2) | 51(±5) | 40(±6) | 31(±3) | 16(±4) | 64 | 62 | 49 | viability at 2.5 µM [4]: 38%; viability at 25 µM [4]: 19%; IC50 [5, 8]: 5.36 µM |
| c1cnc2c(OCCCCCCN3CCOCC3)ccc(-c3ccc4c(c3)OCO4)c2c1 [Formula XVI, 8-(6-morpholinohexyloxy)-5-(benzo[d][1,3]dioxol-5-yl)quinoline] | 3.52 | – | 3.8 | 53(±4) | 42(±4) | 34(±3) | 25(±4) | 63 | 50 | 40 | 30 | 5.52 | 61(±3) | 51(±3) | 42(±3) | 37(±3) | 22(±4) | 71 | 59 | 49 | 3D sphere count of PC3 in Prostosphere media ([1]; 0.0025 uM): 72(±6); viability at 0.0025 µM ([1]; GCD = 100% viability): 86%; viability at 2.5 µM [4]: 43%; viability at 25 µM [4]: 25% |
| c1cnc2c(OCCCCNC3CCCCC3)ccc(-c3ccc4c(c3)OCO4)c2c1 [Formula XVII, N-(4-(5-(benzo[d][1,3]dioxol-5-yl)quinolin-8-yloxy)butyl)cyclohexanamine] | 1.99 | – | 2.13 | – | – | – | – | – | – | – | – | 2.82 | – | – | – | – | – | – | – | – | – |
| c1cc2c(cc1-c1ccc(OCCN3CCOCC3)c3c1CCCC3)OCO2 [Formula XXI, 4-(2-(5-(benzo[d][1,3]dioxol-5-yl)-1,2,3,4-tetrahydronaphthalen-8-yloxy)ethyl) morpholine] | 4.26 | 2.75 | 4.2 | 54(±2) | 50(±2) | 45(±3) | 36(±2) | 68 | 63 | 57 | 45 | 3.86 | – | – | – | – | – | – | – | – | 3D sphere count of PC3 in Prostosphere media ([1]; 0.0025 uM): 62(±4); viability at 0.0025 µM ([1]; GCD = 100% viability): 78%; IC50 [5, 8]: 4.34 µM |
| C=CCNCCCCCCOc1ccc(-c2ccc3c(c2)OCO3)c2c1CCCC2 [Formula XXII, 6-(5-(benzo[d][1,3]dioxol-5-yl)-1,2,3,4-tetrahydronaphthalen-8-yloxy)-N-allylhexan-1-amine] | 1.48 | – | 1.35 | 44(±4) | 36(±3) | 25(±3) | 14(±3) | 52 | 43 | 30 | 17 | 2.45 | 47(±3) | 34(±3) | 24(±4) | 9(±2) | 0(±0) | 55 | 39 | 28 | 3D sphere count of PC3 in Prostosphere media ([1]; 0.0025 uM): 55(±3); viability at 0.0025 µM ([1]; GCD = 100% viability): 66%; viability at 2.5 µM [4]: 10%; viability at 25 µM [4]: 0% |
